Numbers after ± are expanded uncertainties.
Columns and labels:
[1] = for surface tension liquid-gas: Pendant drop shape; for mass density: 101.33 kPa, Liquid, Pycnometric method
[2] = 293.15 K; 101 kPa; Liquid mixture 1; pendant drop method

| SMILES | surface tension liquid-gas ([1]; 293.15 K) | mass density ([1]; 293.15 K) | also measured |
| --- | --- | --- | --- |
| COCCn1cc[n+](C)c1.F[B-](F)(F)F [1-(2-methoxyethyl)-3-methyl-imidazolium tetrafluoroborate] | 35.31 ± 0.64 mN/m | 1306 ± 7 kg/m3 |  |
| CCCCCCCCO [octan-1-ol] + O |  |  | interfacial tension [2]: 8.3 ± 0.5 mN/m |
| CCCCn1cc[n+](C)c1C.O=S(=O)([N-]S(=O)(=O)C(F)(F)F)C(F)(F)F + O |  |  | interfacial tension [2]: 17.04 ± 1.3 mN/m |
| ClCCl [dichloromethane] |  | 1327 ± 9 kg/m3 |  |
| CCCCCCCCCCCCCC[P+](CCCCCC)(CCCCCC)CCCCCC.N#C[N-]C#N [tetradecyl(trihexyl)phosphonium dicyanamide] | 30.99 ± 0.61 mN/m |  |  |
| CCCCCCCCn1cc[n+](C)c1.O=S(=O)([N-]S(=O)(=O)C(F)(F)F)C(F)(F)F | 30.55 ± 0.56 mN/m | 1340 ± 4 kg/m3 |  |
| CCOS(=O)(=O)[O-].CCn1cc[n+](C)c1 [1-ethyl-3-methylimidazolium ethyl sulfate] | 46.13 ± 0.91 mN/m | 1242 ± 4 kg/m3 |  |
| CCCCCCCC[N+](C)(CCCCCCCC)CCCCCCCC.O=S(=O)([N-]S(=O)(=O)C(F)(F)F)C(F)(F)F | 22.77 ± 0.43 mN/m |  |  |
| CCCCCCCCCCn1cc[n+](C)c1.N#C[N-]C#N [1-decyl-3-methylimidazolium dicyanamide] | 31.15 ± 0.57 mN/m | 1003 ± 5 kg/m3 |  |
| CCCCCCCCn1cc[n+](C)c1.O=S(=O)([N-]S(=O)(=O)C(F)(F)F)C(F)(F)F + O |  |  | interfacial tension [2]: 22.81 ± 0.41 mN/m |
| CCCCCCCCCCCCCC[P+](CCCCCC)(CCCCCC)CCCCCC.Cc1ccc(S(=O)(=O)[O-])cc1 [tetradecyl(trihexyl)phosphonium tosylate] | 23.2 ± 0.53 mN/m |  | mass density ([1]; 298.15 K): 1003 ± 22 kg/m3 |
| Cn1cc[n+](CCO)c1.N#C[N-]C#N [3-(2-hydroxyethyl)-1-methyl-1H-imidazol-3-ium dicyanoazanide] | 45.75 ± 0.81 mN/m | 1179 ± 3 kg/m3 |  |
| CCCCCCCCCCCCCC[P+](CCCCCC)(CCCCCC)CCCCCC.[Cl-] [trihexyl(tetradecyl)phosphonium chloride] | 30.7 ± 0.56 mN/m | 918 ± 6 kg/m3 |  |
| CCCCCCCC[N+](C)(CCCCCCCC)CCCCCCCC.N#C[N-]C#N [N,N,N-trioctyl-N-methylammonium dicyanamide] | 28.8 ± 0.53 mN/m |  | mass density ([1]; 298.15 K): 890 ± 3 kg/m3 |
| CCCCCCCC[N+](C)(CCCCCCCC)CCCCCCCC.[Cl-] [N-methyl-N,N-dioctyl-1-octanaminium chloride] + O |  |  | interfacial tension [2]: 3.66 ± 0.36 mN/m |
| CCCCn1cc[n+](C)c1.N#CN=C=[N-] [1-butyl-3-methylimidazolium dicyanamide] | 38.14 ± 0.68 mN/m | 1066 ± 10 kg/m3 |  |

| SMILES | surface tension liquid-gas ([1]; 293.15 K) | mass density ([1]; 293.15 K) | also measured |
| --- | --- | --- | --- |
| CCCCCCN(CCCCCC)C(N(C)C)=[N+](CCCCCC)CCCCCC.[Cl-] | 28.95 ± 0.57 mN/m |  | mass density ([1]; 298.15 K): 943 ± 50 kg/m3 |
| CCCCCCCC[n+]1ccn(C)c1.[Cl-] [1-methyl-3-octylimidazolium chloride] | 26.2 ± 0.57 mN/m | 971 ± 6 kg/m3 |  |
| CCCCn1cc[n+](C)c1.F[B-](F)(F)F [1-butyl-3-methylimidazolium tetrafluoroborate] | 44.28 ± 0.79 mN/m | 1212 ± 5 kg/m3 | mass density ([1]; 298.15 K): 1217 ± 12 kg/m3 |
| CCCCCCCCn1cc[n+](C)c1.N#C[N-]C#N [3-methyl-1-octylimidazolium dicyanamide] | 36.86 ± 0.66 mN/m | 1013 ± 3 kg/m3 |  |
| CCCCCCN(CCCCCC)C(N(C)C)=[N+](CCCCCC)CCCCCC.N#C[N-]C#N | 21.35 ± 0.49 mN/m |  |  |
| CCCCCCCCCCCCCC[P+](CCCCCC)(CCCCCC)CCCCCC.[Cl-] [trihexyl(tetradecyl)phosphonium chloride] + O |  |  | interfacial tension [2]: 6.11 ± 0.17 mN/m |
| CCCCCCCCCCn1cc[n+](C)c1.F[B-](F)(F)F [1-decyl-3-methylimidazolium tetrafluoroborate] | 23.65 ± 0.48 mN/m | 1076 ± 3 kg/m3 |  |
| OCCO [1,2-ethanediol] |  | 1121 ± 7 kg/m3 |  |
| CCCCCCCC[N+](C)(CCCCCCCC)CCCCCCCC.[Cl-] [N-methyl-N,N-dioctyl-1-octanaminium chloride] | 26.44 ± 0.49 mN/m | 891 ± 6 kg/m3 | mass density ([1]; 298.15 K): 896 ± 18 kg/m3 |
| CCCCCCCCO [octan-1-ol] |  | 831 ± 3 kg/m3 |  |
| CCCCn1cc[n+](C)c1C.O=S(=O)([N-]S(=O)(=O)C(F)(F)F)C(F)(F)F | 26.66 ± 0.49 mN/m | 1425 ± 24 kg/m3 |  |
| O [water] |  | 1013 ± 5 kg/m3 |  |
| CCCCCCCC[n+]1ccn(C)c1.F[B-](F)(F)F [1-methyl-3-octylimidazolium tetrafluoroborate] | 33.22 ± 0.6 mN/m | 1110 ± 5 kg/m3 | mass density ([1]; 298.15 K): 1115 ± 46 kg/m3 |
| CCCC[n+]1ccn(C)c1.O=S(=O)([N-]S(=O)(=O)C(F)(F)F)C(F)(F)F + O |  |  | interfacial tension [2]: 15.15 ± 0.55 mN/m |
| CCCC[n+]1ccn(C)c1.O=S(=O)([N-]S(=O)(=O)C(F)(F)F)C(F)(F)F |  | 1452 ± 13 kg/m3 | surface tension liquid-gas ([1]; 298.15 K): 38.37 ± 0.69 mN/m |

From the NIST ThermoML archive (doi:10.1021/je900502s)
